Data on 2 molecules can be found in article PMC8062481, “Crystal structures of an E1–E2–ubiquitin thioester mimetic reveal molecular mechanisms of transthioesterification” (Nature Communications, 2021).

The target in assay [1] is T1, Uba1–Cdc34^A141K–Ub(t) (covalently trapped E1–E2–ubiquitin thioester mimetic) (Saccharomyces cerevisiae, UniProt P22515).
T1 construct: Uba1 11-1024 and Cdc34 1-195 (A141K), N-terminal TEV-cleavable 6xHis, E. coli BL21(DE3); Uba1 C600-Cdc34 C95 disulfide; Ub Gly76 isopeptide-linked to Cdc34 K141; with Ubiquitin-conjugating enzyme E2-34 kDa; Ubiquitin
The experiment in a line: X-ray crystallography, […] Å. As to conditions: crystals grown with 1 mM ATP, 5 mM MgCl2 and excess Ub; ATP binding pocket of Uba1 adenylation domain; AMP in seven of eight copies.

For assay [2], the target named is T2, S. cerevisiae Uba1 residues 11-1024 (S. cerevisiae, UniProt P22515 11-1024, Cys600 disulfide-linked to Cys95 of Cdc34 (in the crystallised complex)).
T2 construct: Uba1 (ubiquitin E1), S. cerevisiae, residues 11-1024; In the structure it is covalently trapped with Cdc34^A141K-Ub(t) through a disulfide between the catalytic cysteines; also called E1; ScUba1; source: E. coli BL21 (DE3) Codon Plus, purified (Ni-NTA, Superdex 200, MonoQ); not shown: His6, N-terminal, cleaved
The experiment in a line: crystal structure; covalently trapped Uba1–Cdc34^A141K–Ub(t) complex (Cys600–Cys95 disulfide, A141K–Gly76 isopeptide bond), 100 μM, crystallised with free Ub (200 μM), 1 mM ATP and 5 mM MgCl2 at 18 °C; 3.43 Å; eight copies, four open and four closed. As to conditions: both partners purified.

T2 sequence (P22515 11-1024): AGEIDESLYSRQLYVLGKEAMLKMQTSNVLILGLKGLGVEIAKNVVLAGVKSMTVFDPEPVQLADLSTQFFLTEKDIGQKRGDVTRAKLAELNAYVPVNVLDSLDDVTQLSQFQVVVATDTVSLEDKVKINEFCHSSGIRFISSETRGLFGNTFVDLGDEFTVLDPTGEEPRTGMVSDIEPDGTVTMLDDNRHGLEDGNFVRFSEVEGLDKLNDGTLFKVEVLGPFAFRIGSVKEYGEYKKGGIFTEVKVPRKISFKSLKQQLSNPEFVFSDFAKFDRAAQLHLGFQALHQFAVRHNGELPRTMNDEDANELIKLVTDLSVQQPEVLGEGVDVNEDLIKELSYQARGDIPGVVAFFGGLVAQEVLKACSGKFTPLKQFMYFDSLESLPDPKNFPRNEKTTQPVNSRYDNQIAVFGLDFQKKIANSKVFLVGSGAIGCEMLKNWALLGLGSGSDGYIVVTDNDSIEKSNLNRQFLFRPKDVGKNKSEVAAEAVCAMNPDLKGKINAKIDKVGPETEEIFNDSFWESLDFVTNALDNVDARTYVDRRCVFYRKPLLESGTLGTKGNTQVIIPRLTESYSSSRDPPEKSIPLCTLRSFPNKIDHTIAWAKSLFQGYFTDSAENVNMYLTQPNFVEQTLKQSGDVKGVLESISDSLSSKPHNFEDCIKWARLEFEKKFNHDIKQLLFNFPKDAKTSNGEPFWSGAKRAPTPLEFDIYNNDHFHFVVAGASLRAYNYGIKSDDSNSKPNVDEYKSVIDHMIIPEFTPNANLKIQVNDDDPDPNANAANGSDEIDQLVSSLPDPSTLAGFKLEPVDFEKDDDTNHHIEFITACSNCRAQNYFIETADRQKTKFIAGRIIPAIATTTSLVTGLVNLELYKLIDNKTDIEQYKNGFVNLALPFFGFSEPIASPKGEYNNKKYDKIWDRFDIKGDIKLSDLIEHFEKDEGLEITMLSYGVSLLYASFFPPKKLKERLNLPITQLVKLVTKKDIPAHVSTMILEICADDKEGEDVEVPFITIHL

Take `Nc1ncnc2c1ncn2[C@@H]1O[C@H](COP(=O)(O)O)[C@@H](O)[C@H]1O` [AMP]: in assay [1], the “X-ray crystallography, 3.43 Å” value is “strong electron density into which AMP (but not the β and γ phosphates of ATP)”.

B1: S. cerevisiae Cdc34 residues 1-195 with A141K (Cdc34^A141K) (enzyme, UniProt P14682 1-195, looked up)
chain: MSSRKSTASSLLLRQYRELTDPKKAIPSFHIELEDDSNIFTWNIGVMVLNEDSIYHGGFFKAQMRFPEDFPFSPPQFRFTPAIYHPNVYRDGRLCISILHQSGDPMTDEPDAETWSPVQTVESVLISIVSLLEDPNINSPKNVDAAVDYRKNPEQYKQRVKMEVERSKQDIPKGFIMPTSESAYISQSKLDEPES
modifications: Lys141 (A141K) isopeptide-linked to Gly76 of Ub(t); Cys95 disulfide-linked to Cys600 of Uba1
notes: Cdc34 (ubiquitin E2), S. cerevisiae, residues 1-195 (Cdc34^ΔCT) with A141K; Stands in the structure as the Cdc34^A141K-Ub(t) thioester mimetic cross-linked to Uba1; also called E2; Cdc34^ΔCT A141K; source: E. coli BL21 (DE3) Codon Plus, purified (Ni-NTA, Superdex 75, MonoQ); not shown: His6, N-terminal, cleaved
B1: in assay [2], the binding result was “binds”.
